In patent publication US20210379063A1, “ORAL AMINODIHYDROPHTHALAZINEDIONE COMPOSITIONS AND THEIR USE IN THE TREATMENT OF NON-VIRAL HEPATITIS” (Immunopharma Plus D.O.O., priority 2018, published 2021):
Several values for one entry are separate records, joined by “and”; a condition that tells them apart may be missing. Equal values may be shown once. Read-outs that look alike come from different tables or passages of the source.

How the values were obtained:
[1] = tested on: acute experimental hepatitis, tetrachloromethane (CCL4)
Description: Acute experimental hepatitis that develops with the introduction of tetrachloromethane (CCL4) is a classic model for studying the mechanisms of reparative regeneration of the liver after exposure to various chemical toxicants.
The experiments were carried out on male Wistar rats weighing 200-220 g, in accordance with the recommendations of the international ethics committees on the humane treatment of laboratory animals (EU Council Directive 86/609 EEC dated Nov. 24, 1986). Carbon tetrachloride (CCL4), was administered to the animals intraperitoneally once at a dose of 50 mg/kg of body weight. […] The animals were sacrificed on the 3rd, 7th day after the simulation of toxic hepatitis.

[2] = Description: Title: FaSSGF: Fasted State Simulating Gastric Fluid
Preparation FaSSGF (for 2000 ml)
Name: FeSSGF: Fed State Simulating Gastric Fluid
Name: FaSSIF Fasted State Simulating Intestinal Fluid
Name: FeSSIF Fed State Simulating Intestinal Fluid
For preparation of 2 L media
Name: SCoF (Simulated Colonic Fluid)
Preparation of 100 ml solution
Prior to testing • Lactobacilli drops (100 million per dissolution/20 million per permeation donor compartment) added
Each presented dissolution data is a summary of 3 results.

porcine small intestine = details: for concentration in receptor compartment, small intestine, AVG / concentration in receptor compartment, small intestine: 10 mM donor solution; for concentration in receptor compartment, small intestine: single chambers
Description: Porcine Small Intestinal (SI) Permeability Procedure • Full thickness pig small intestinal delivered to Solubest on the day of the experiment. • Experiments were carried out on 6 slices 2 cm*2 cm with full thickness pig small intestinal sample • The intestinal was prepared so brush border side is facing the donor compartment. • According to Solubest protocol the excess mucus and connective tissue were removed • The receiver compartment contains 0.01M Phosphate Buffer pH 7.4 (PBS). • Receiver's samples were withdrawn at 5 time points (30 min, 60 min, 120 min, 4 hours and 6 hours). • Water pump was set to temp 38±1° C. in order to keep fixed temp in receptor department at 37±1° C.

[3] = CCl4 3rd day + Tamerit 2 mg/kg intramuscularly
[4] = CCl4 7th day + Tamerit 2 mg/kg intramuscularly

SMILES: Nc1cccc2c(=O)[n-][nH]c(=O)c12.[Na+] [Tamerit, aminodihydrophthalazinedione sodium]
- ALT, U/L [1, 3]: 9.1 ± 1.6 U/L
- AST, U/L [1, 3]: 10.0 ± 2.0 U/L
- BCL, quant [1, 3]: 186.0 ± 7.0 quant
- ALT, U/L [1, 4]: 7.12 ± 0.20 U/L
- AST, U/L [1, 4]: 8.53 ± 0.13 U/L
- BCL, quant [1, 4]: 171 ± 18 quant
- effect on inflammatory reaction in toxic hepatitis ([1]; early stages of toxic hepatitis by tetrachloromethane): reduces the severity of the inflammatory reaction
- Dissolution, % ([2]; FaSSGF pH 1.6, 15 min): 88.24%
- Dissolution, % ([2]; FaSSGF pH 1.6, 30 min): 90.68%
- Dissolution, % ([2]; FaSSIF pH 6.5, 30 min, sodium): 98.62%
- Dissolution, % ([2]; FaSSIF pH 6.5, 60 min): 103.11%
- Dissolution, % ([2]; FaSSIF pH 6.5, 90 min): 102.16%
- Dissolution, % ([2]; FaSSIF pH 6.5, 120 min): 102.37%
- Dissolution, % ([2]; FaSSIF pH 6.5, 180 min): 103.78%
- Dissolution, % ([2]; FeSSCoF pH 6.0, 15 min, sodium): 90% and 90.07%
- Dissolution, % ([2]; FeSSCoF pH 6.0, 2 hr): 89.21%
- Dissolution, % ([2]; FeSSCoF pH 6.0, 4 hr, sodium): 100% and 102.12%
- Dissolution, % ([2]; FeSSCoF pH 6.0, 24 hr): 95.77%
- Dissolution, % ([2]; FeSSGF pH 5.0, 15 min): 86.83%
- Dissolution, % ([2]; FeSSGF pH 5.0, 30 min): 77.65%
- Dissolution, % ([2]; FeSSGF pH 5.0, 45 min): 75.6%
- Dissolution, % ([2]; FeSSGF pH 5.0, 90 min): 79.42%
- Dissolution, % ([2]; FeSSIF pH 5.0, 30 min): 79.65%
- Dissolution, % ([2]; FeSSIF pH 5.0, 60 min): 69.28%
- Dissolution, % ([2]; FeSSIF pH 5.0, 90 min, sodium): 90% and 87.40%
- Dissolution, % ([2]; FeSSIF pH 5.0, 120 min): 84.48%
- Dissolution, % ([2]; FeSSIF pH 5.0, 180 min): 88.50%
- pH at which Tamerit is the most soluble ([2]; Tamerit powder dissolution, FIG. 2): 6.5
- stability ([2]; colonic conditions): very stable
- stability ([2]; fast and fed conditions of the small intestinal): quite stable
- stability ([2]; fast and fed gastric conditions): sufficient stability
- dissolution ([2]; fast gastric media): ~90%
- dissolution ([2]; fed gastric media): 80-90%
- concentration in receptor compartment, small intestine, AVG (porcine small intestine; 0 min): 0 µg/mL
- concentration in receptor compartment, small intestine (porcine small intestine; 0 min): 0 µg/mL
- concentration in receptor compartment, small intestine, AVG (porcine small intestine; 30 min): 1 µg/mL
- concentration in receptor compartment, small intestine, AVG (porcine small intestine; 60 min): 3 µg/mL
- concentration in receptor compartment, small intestine (porcine small intestine; 60 min, sodium): 3.5 µg/mL and 2.4 µg/mL
- concentration in receptor compartment, small intestine, AVG (porcine small intestine; 120 min): 6 µg/mL
- concentration in receptor compartment, small intestine (porcine small intestine; 120 min, sodium): 5.4 µg/mL and 5.6 µg/mL and 9.1 µg/mL and 5.1 µg/mL
- concentration in receptor compartment, small intestine, AVG (porcine small intestine; 240 min): 12 µg/mL
- concentration in receptor compartment, small intestine, AVG (porcine small intestine; 360 min): 23 µg/mL
- concentration in receptor compartment, small intestine (porcine small intestine; 360 min, sodium): 26.4 µg/mL and 19.5 µg/mL and 28.7 µg/mL and 19 µg/mL
- Tamerit Permeability vs Propranolol Permeability (porcine small intestine; small intestine, FIG. 11): permeates better than propranolol
- permeation compared with Propranolol (porcine small intestine; small intestine, after 4 hours): three time better than Propranolol
